# Source: a melting point compilation (Tetko et al.; mined from patent text by program, amines drawn as free bases though some values may be those of a salt)
# Residues, ends and D or L forms follow the SMILES beside them. *: point of attachment. For = O=C*
row,SMILES,melting point [°C]
1,CC(C)OC(=O)c1ccc2c(c1)ncn2-c1cccc(Br)c1,102 to 104
2,CCc1nc2c(cnn2CC)c(NC2CCOCC2)c1CNC(=O)c1cccc(C(=O)NCc2cc(Cl)cc(-c3cccc(CN4CC5CC4CN5)c3)c2)c1 (stereo not given),130 to 133
3,CC1CCc2c(N3CCN(S(=O)(=O)C(F)(F)F)CC3)c(Cl)cc3c(=O)c(C(=O)O)cn1c23 (stereo not given),232 to 235
4,C1=C(c2ccc3c(c2)OCO3)CCN(Cc2n[nH]c3ccccc23)C1,139 to 141
5,CC(=O)OCC1OC(n2ccc(=O)[nH]c2=O)C(Br)C1OC(C)=O (stereo not given),69 to 77
6,CC1(N2C(=O)c3ccc(CNC(=O)c4ccc(S(C)(=O)=O)cc4)cc3C2=O)CCC(=O)NC1=O (stereo not given),166 to 168
7,CC(CCCO)C1CCC2C3C(O)CC4CC(O)CCC4(C)C3CCC12C (stereo not given),116 to 118
8,CCOC(=O)c1cc(C)n(-c2cccc(Cl)c2)c1-c1ccccc1,93.2 to 94.6
9,CCOc1nc2c(cnn2CC)nc1C(=O)Nc1nccs1,151 to 152
10,Cc1oc(-c2ccccc2)nc1CCOc1ccc(CN(O)C(N)=O)cc1F,135 to 136
11,COc1ccc(S(=O)(=O)N2CCN(C(=O)c3ccc(Nc4ccnc5cc(C(F)(F)F)ccc45)cc3)CC2)cc1,221 to 223
12,COCc1c(C(=O)OC)sc2nnsc12,123 to 124
13,CCOC(=O)COc1ccc(-c2noc3ccccc23)c(Cl)c1Cl,88 to 89
14,O=C(O)C(=O)c1ccc(OCCCCc2ccncc2)cc1,198 to 199
15,Nn1ccc(C(=O)c2ccccc2)c1,82 to 83
16,O=C1N(CC2OC(O)C(O)C(O)C2O)c2ccccc2C12COc1cc3c(cc12)OCCO3 (stereo not given),122 to 126
17,CCCCCCCCc1c(CC)nc2nc(Cl)nn2c1N,202 to 203
18,O=C(Nc1ccc(Oc2ccccc2)cc1)N1CCN(c2ncnc3cc(F)c(F)cc23)CC1,177 to 178
19,O=CNC[C@H]1CN(c2ccc(N3CCOCC3)c(F)c2)C(=O)O1,44 to 47
20,CCCCCCSc1c(O)cc(C)oc1=O,69 to 70
21,COc1cc(C)cc(OC)c1NC(=O)CC(C)C,139
22,O=C1c2ccccc2C(O)C1Cc1ncc(C(F)(F)F)cc1Cl (stereo not given),174 to 178
23,Nc1nc(OS(=O)(=O)Cl)nn1C(=O)Oc1ccccc1,164
24,N#Cc1cncc(-c2cccc(OCc3ccccc3)c2)c1Nc1ccc2[nH]ccc2c1,165 to 166

row,SMILES,melting point [°C]
1,O=CNC(CC(=O)O)C(=O)NC(Cc1ccccc1)C(=O)O (stereo not drawn) (For-Asp-Phe-OH; configuration not given here),180 to 182
2,O=C(O)c1ccc2cc(-c3ccc(OCC(O)CO)c(C45CC6CC(CC(C6)C4)C5)c3)ccc2c1 (stereo not given),278
3,COc1cc(COc2ncccc2C#N)ccc1OCc1nc(-c2ccccc2)oc1C,117 to 118
4,CCCCNc1cc(C(=O)OCC#N)cc(S(N)(=O)=O)c1Oc1ccccc1,159 to 161
5,CC(C)(C)OC(=O)c1ncn2c1CN(C(=O)N1CCOCC1)c1cc(F)ccc1-2,196
6,CCCCCCCN=C1SC(=CC(=O)O)C(=O)N1CCCCCCC,80 to 81
7,O=C1C=C(C(=O)c2ccccc2[N+](=O)[O-])CC(c2ccccc2)N1 (stereo not given),139 to 141
8,CCOC(=O)C1=Cc2cc(SC)ccc2OC1C(F)(F)F (stereo not given),87.8 to 89.6
9,CCCCCCN(Cc1cccnc1)C(Nc1ccc(OC)cc1OC)=C1C(=O)OC(C)(C)OC1=O,154 to 155
10,CC(C)n1cnc2c(NCc3cc(O)ccc3O)nc(NC[C@@H](C)O)nc21,162 to 164
11,Cc1cc(C)n(-c2nccc(Nc3cccc(C(F)(F)F)c3)n2)n1,98.5 to 99.6
12,Nc1ncc(Cc2cccc(-c3ccccc3)c2)c(N)n1,108 to 115
13,CCCCc1nc2c(N)nc3ccccc3c2n1CCCNC(=O)N1CCOCC1,193 to 195
14,CC(C)(C)OC(=O)N1CCC2(CC1)C(=O)N(CC(=O)O)CN2c1ccccc1,200 to 201
15,CCN1CNS(=O)(=O)c2cc(Oc3cccc(C(C)O)c3)ccc21 (stereo not given),60
16,Oc1ccc(-c2n[nH]c3ccccc23)cc1,189 to 190
17,O=C(Nc1cccc(S(=O)(=O)C(F)(F)F)c1)c1c(O)ccc2ccccc12,179 to 180
18,COc1cc(C(=O)N2CC(O)CC2C(N)=O)cc(OC)c1OC (stereo not given),172
19,O=C(Nc1c[nH]nc1C(=O)NCCOc1ccccc1)c1ccccn1,182 to 183
20,C=C(Br)C(=O)Nc1ccccc1,90.5 to 92.5
21,CS(=O)c1n[nH]c(-c2cc(C(C)(C)C)c(O)c(C(C)(C)C)c2)n1 (stereo not given),135 to 145
22,COP(=O)(Cc1cc(C)c(CP(=O)(OC)OC)cc1C)OC,121 to 123
23,CCOC(=O)CC(=O)Nc1nc(C)cs1,138 to 141
24,O=C(CCN1CCCCC1)Nc1cccc(NC(=O)Nc2ccc(N(CCCl)CCCl)cc2)c1,108 to 110

row,SMILES,melting point [°C]
1,CC(C)CC(=O)OC(C)OC(=O)NC1(C(=O)O)CC1 (stereo not given),117 to 119
2,CCCCCCCc1ccc(OC(=O)c2cc3c(s2)CC(CCCCC)C3)cc1 (stereo not given),64
3,CCCCNC(=O)[C@@H]1CCCN1C(=O)OCc1ccccc1,88 to 90
4,O=C(CCCN1CCC2(CC1)OC(=O)c1ccccc12)c1ccc(F)cc1,183 to 184
5,CN(C)CCNC(=O)[C@H]1C[C@H](NC(=O)Cc2ccccc2)c2c(Cl)cc(Cl)cc2N1 (relative stereo),158 to 159
6,Cc1cnc2c(NC(=O)c3c(Cl)cccc3Cl)cccc2c1Oc1ccccc1,168 to 170
7,Cc1c(CC(=O)O)c2cc(C(=O)C(C)C)cc3c2n1CCC3,162
8,CNC(=C[N+](=O)[O-])NCCCCc1nc[nH]c1Br,145 to 148
9,O=c1[nH]ncc2[nH]c(-c3ccc(OC(F)F)c(OCC4CC4)c3)c(Cl)c12,258 to 260
10,CCOC(=O)C(C)Oc1ccc(N(C)c2ncnc3cc(Cl)ccc23)cc1 (stereo not given),92
11,O=C1[C@H]2CCC[C@H]2N(C(=O)CNCc2ccccc2)c2ccccc2N1Cc1ccccc1 (relative stereo),95 to 98
12,Cc1sc(NC(=O)OC(C)(C)C)c(NC(=O)OC(C)(C)C)c1C#N,> 300
13,CCCCNC(=O)NS(=O)(=O)c1cccc(C(=O)OC)c1I,163 to 167
14,COc1ccc(C=O)cc1NC(=O)OCC1c2ccccc2-c2ccccc21,139 to 142
15,CC(C)C(C)(C#N)N1C(=O)C=C(Nc2ccccc2CO)C1=O (stereo not given),39 to 45
16,OC(Cn1ccnc1)c1ccc2ccccc2c1 (stereo not given),156 to 160
17,CC(=O)c1cc(NC(=O)NCCCC(C)CNC(=O)Nc2cc(C(C)=O)cc(C(C)=O)c2)cc(C(C)=O)c1 (stereo not given),128
18,Cc1c(C)c2c(c(C)c1N)CC(C)(CN1CCC(CCO)CC1)O2 (stereo not given),94 to 95
19,COc1cc2nc(N3CCN(c4ccc(Cl)ccc4=O)CC3)nc(N)c2cc1OC,202 to 204
20,CCCCCCCCCCCCCCOc1ccc(CN(C(=O)c2cccnc2)c2ccccc2)cc1,65 to 67
21,Cc1cc(NC(=S)Nc2cc(Cl)ccc2C)sn1,187 to 188
22,CCNC(=O)/C=C(C)/C=C/C=C(C)/C=C/c1c(C)cc(OC(F)(F)F)c(C)c1C,198 to 200
23,Cc1cccc(CC(=O)O)c1OCCCc1cn(-c2ccc(Br)cn2)nc1C(C)(C)C,62 to 63
24,O=CC(=C(Cl)c1ccc2c(c1)OCO2)c1ccc2c(c1)OCO2,167 to 168

row,SMILES,melting point [°C]
1,Cc1ccc(-c2ccc3c(c2)C=C(C(=O)Nc2ccc(CN4CCCCC4)cc2)CCC3)cc1,192 to 193
2,CC1(C)Oc2ccc([N+](=O)[O-])cc2[C@@H](O)[C@@H]1Br (relative stereo),114 to 116
3,Clc1cc(-c2ccncc2)ccn1,193 to 196
4,CCc1nc2c(N)nc3cc(/C=C/C(=O)N(C)C)ccc3c2n1CC1CCOCC1,> 260
5,CCN(C(=O)N1CCN(c2cc(OC)cc(OC)c2)CC1)c1nc(C)c(C)nc1OC,78 to 80
6,O=C(O)CCCc1cc2cc(Cl)ccc2n1S(=O)(=O)c1ccc2ccccc2c1,166
7,O=[N+]([O-])c1ccccc1S(=O)(=O)c1ccc(Cl)cc1,136 to 138
8,O=c1cc(-c2ccccc2)n(-c2ccccc2Cl)c(-c2ccccc2)c1Cl,230 to 233
9,CCn1cc(C(=O)O)c(=O)c2cc(F)c(N3CCNC(COC(C)C)C3)cc21 (stereo not given),144 to 146
10,CCOC(=O)C(=CC=C(SC)C(=O)c1ccc(N2CCCCC2)cc1)N(C)C,113
11,CC1(C)CC(=O)C(c2c[nH]c3ccccc23)C(=O)C1,173
12,COC(C)(C)C(=O)O[C@H]1C[C@H](O)C=C2C=C[C@H](C)[C@H](CC[C@@H]3C[C@@H](O)CC(=O)O3)[C@H]21,150 to 152
13,COC(=O)C1=C(C)NC(C)=C(c2nc(CCl)no2)C1c1cccc([N+](=O)[O-])c1 (stereo not given),200 to 202
14,O=C(O)c1cc(OCCCOc2cccc(-c3ccccc3)c2)cc(OCCCOc2cccc(-c3ccccc3)c2)c1,65 to 69
15,Cn1nc(-c2cccc(-n3ncc4cc(C(C)(C)C)cc(F)c4c3=O)c2CO)cc(Nc2cnc([C@H](O)CO)cn2)c1=O,218 to 224
16,CC(C)(C)OC(=O)N1CCN(c2cccc([N+](=O)[O-])c2)C(=O)C1,122 to 123
17,CN(C)c1nc(NCc2ccc(NC(=O)C3CCN(Cc4ccccc4)CC3)cc2)c2ccc(I)cc2n1,194
18,CCCCOCCOc1ccc(-c2ccc3c(c2)C=C(C(=O)Nc2ccc(SCc4nncn4CC(C)C)cc2)CCN3CCC)cc1,130 to 132
19,CCCCCCCCCCCCCCCCCCNC(=O)OCC(CNS(=O)(=O)CCCI)NC(=O)OC (stereo not given),97
20,CC(C)N1C(=O)[C@@H](CCCC(=O)O)O[C@H](c2ccccc2Cl)c2cc(Cl)ccc21 (relative stereo),158 to 160
21,COc1ccc(C=CC(=O)c2ccc(O)cc2)c(OC)c1,165 to 166
22,CC(O)(CCCC(F)(F)C(F)(F)C(F)(F)C(F)(F)C(F)(F)C(F)(F)F)CCCC(F)(F)C(F)(F)C(F)(F)C(F)(F)C(F)(F)C(F)(F)F,46 to 47
23,OCc1cccc2c1CCc1ccccc1-2,108 to 110
